Reference: EP4800012A1, “COMPOUND ACTING AS PARP7 INHIBITOR” (Dovetree Medicines Unus, Inc., priority 2023, dated 2025)

Assays:
NCI-H1373 cells = assay: Inhibition on NCI-H1373 cell proliferation (Cell-Titer-Glo); assay type: cell-based; settings: Homo sapiens, 144 h; NCI-H1373 cells, incubation for 6 days, Cell-Titer-Glo; read-out: NCI-H1373 cell proliferation inhibition IC50
Procedure: The inhibitory effect of the compound on PARP7 was evaluated by testing the inhibitory effect of the compound on NCI-H1373 cell proliferation.
NCI-H1373 cells (ATCC, CRL-5866) were cultured in a complete medium, namely, a RPMI-1640 medium (Gibco, 22400089) containing 10% fetal bovine serum (Corning, 35-081-CV).
Negative control wells and positive control wells were added with 50 nL DMSO (Sigma, D2650), respectively.
In "Day 0" detection plate, NCI-H1373 cells were seeded at a density of 600 cells/well (50 µL) in a complete medium into the Day 0 test wells of a 384-well detection plate (Grenier, 781091). Then, 25 µL of Cell-Titer-Glo reagent (Promega, G7573) was added to each well, followed by centrifugation at 1000 rpm at room temperature for 1 minute and incubation at room temperature under shaded conditions for 10 min. Chemiluminescence signals were collected using an Envision (Perkin Elmer, EnVision 2105) to obtain the average value of the Day 0 test values.
In "compound detection plate", NCI-H1373 cells were seeded at a density of 600 cells/well (50 µL) in a complete medium into the negative control wells and the compound detection wells of a 384-well detection plate (Grenier, 781091), and 50 µL of cell culture medium was added to the positive control wells, followed by centrifugation at 1000 rpm at room temperature for 1 minute and placing in a cell incubator at 37°C, 5% CO2 for incubation for 6 days. […] Chemiluminescence signals were collected using an Envision (Perkin Elmer, EnVision 2105). The test values for each compound well, negative control well, and positive control well were obtained.
The proliferation inhibition ratio formula is as follows: [formula]
The average value of the negative control = the average value of the Day 6 test values of each negative control well minus the average value of the Day 0 test values
The average value of the positive control = the average value of the Day 6 test values of each positive control well
The average value of the compound test = (the Day 6 test value of compound test well 1 + the Day 6 test value of compound test well 2)/2 - the average value of the Day 0 test values

PARP7 [1] = molecular target: T1, PARP7 (Homo sapiens, UniProt Q7Z3E1); assay: PARP7 TR-FRET binding inhibition (displacement of probe RBN011147); settings: TR-FRET, Biotin-labeled probe RBN011147; read-out: PARP7 binding inhibition IC50
T1 construct: purchased BPS 80527
T1 sequence (Q7Z3E1 1-657): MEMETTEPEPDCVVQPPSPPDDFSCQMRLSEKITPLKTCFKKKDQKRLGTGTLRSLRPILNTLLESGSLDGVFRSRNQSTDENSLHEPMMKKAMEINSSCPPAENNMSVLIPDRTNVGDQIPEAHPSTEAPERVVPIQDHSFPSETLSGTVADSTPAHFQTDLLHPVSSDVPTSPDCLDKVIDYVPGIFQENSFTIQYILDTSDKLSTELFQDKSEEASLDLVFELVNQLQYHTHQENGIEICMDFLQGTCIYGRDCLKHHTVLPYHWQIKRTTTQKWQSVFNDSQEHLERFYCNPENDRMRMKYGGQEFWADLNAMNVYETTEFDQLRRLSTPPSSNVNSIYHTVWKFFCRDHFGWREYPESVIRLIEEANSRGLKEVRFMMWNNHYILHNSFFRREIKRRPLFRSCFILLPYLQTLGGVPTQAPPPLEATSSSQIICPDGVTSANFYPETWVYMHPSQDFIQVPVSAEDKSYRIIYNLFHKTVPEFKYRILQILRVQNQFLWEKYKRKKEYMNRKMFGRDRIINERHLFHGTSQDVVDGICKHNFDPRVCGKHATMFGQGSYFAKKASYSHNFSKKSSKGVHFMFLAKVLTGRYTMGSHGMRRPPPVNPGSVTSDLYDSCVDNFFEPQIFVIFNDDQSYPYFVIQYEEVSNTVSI
Procedure: The ability of the compound to substitute the probe RBN011147 (Wigle et al., 2020, Cell Chemical Biology 27, 877-887) was tested by a TR-FRET method, and IC50 was calculated to evaluate the binding ability of the compound to PARP7. […]

PARP7 [2] = molecular target: T1, PARP7; assay: Inhibition of the compound on PARP7 protein activity (ADP-ribosylation, chemiluminescence); assay type: biochemical; settings: Histone H1 coated plate, Biotin-Labeled NAD+, 2 h at room temperature, chemiluminescence; read-out: PARP7 activity inhibition IC50

Compound | IC50 (NCI-H1373 cells) | IC50 (PARP7 [1]) | IC50 (PARP7 [2])
CC(CCNC(=O)c1cccc2c1[nH]c(=O)n2-c1ncc(C(F)(F)F)cn1)Nc1cn[nH]c(=O)c1C(F)(F)F (stereo not drawn) [Example 6] | > 3000 nM | 30 to 100 nM | 10 to 30 nM
CC(CCCN1C(=O)c2ccc(-c3ncc(C(F)(F)F)cn3)cc2C1=O)Nc1cn[nH]c(=O)c1C(F)(F)F (stereo not drawn) [Example 9] | > 3000 nM | < 10 nM | < 3 nM
Cc1c(CCC(=O)Nc2ccc(-c3ncc(C(F)(F)F)cn3)cn2)c[nH]c(=O)c1C(F)(F)F [Example 13] | > 3000 nM | 30 to 100 nM | < 3 nM
CC(CCCNC(=O)c1ccc(-c2ncc(N3CCOCC3)cn2)cc1)Nc1cn[nH]c(=O)c1C(F)(F)F (stereo not drawn) [Example 14] | > 3000 nM | < 10 nM | < 3 nM
CC(CCCNC(=O)c1ccc(-c2ncc(N3CCOCC3)s2)cc1)Nc1cn[nH]c(=O)c1C(F)(F)F (stereo not drawn) [Example 15] | > 3000 nM | 10 to 30 nM | 3 to 10 nM
CC(CCCNC(=O)c1ccc(-c2ncc(N3CC(F)C3)s2)cc1)Nc1cn[nH]c(=O)c1C(F)(F)F (stereo not drawn) [Example 16] | > 3000 nM | 10 to 30 nM | 3 to 10 nM
CC(CCCNC(=O)c1ccc(-c2cc(-c3cccnc3)sn2)cc1)Nc1cn[nH]c(=O)c1C(F)(F)F (stereo not drawn) [Example 18] | 300 to 1000 nM | < 10 nM | < 3 nM
CC(CCCNC(=O)c1ccc(-c2ncc(C3CC3)s2)cc1)Nc1cn[nH]c(=O)c1C(F)(F)F (stereo not drawn) [Example 19] | 300 to 1000 nM | < 10 nM | < 3 nM
CC(CCCNC(=O)c1ccc(-c2ncc(N3CC(F)C3)cn2)cc1)Nc1cn[nH]c(=O)c1C(F)(F)F (stereo not drawn) [Example 20] | 1000 to 3000 nM | < 10 nM | < 3 nM
COc1cnc(-c2ccc(C(=O)NCCCC(C)Nc3cn[nH]c(=O)c3C(F)(F)F)c(F)c2)s1 (stereo not drawn) [Example 21] | 1000 to 3000 nM | < 10 nM | < 3 nM
COc1cnc(-c2ccc(C(=O)NCCCC(C)Nc3cn[nH]c(=O)c3C(F)(F)F)cc2)s1 (stereo not drawn) [Example 22] | 1000 to 3000 nM | 10 to 30 nM | < 3 nM
CC(CCCNC(=O)c1ccc(-c2ncc(C(F)F)s2)cn1)Nc1cn[nH]c(=O)c1C(F)(F)F (stereo not drawn) [Example 23] | 300 to 1000 nM | 10 to 30 nM | < 3 nM
CC(CCCNC(=O)c1cnc(-c2ncc(C(F)F)s2)cn1)Nc1cn[nH]c(=O)c1C(F)(F)F (stereo not drawn) [Example 25] | 1000 to 3000 nM | < 10 nM | < 3 nM
CC(CCCNC(=O)c1cnc(-c2ncc(C(F)(F)F)s2)cn1)Nc1cn[nH]c(=O)c1C(F)(F)F (stereo not drawn) [Example 26] | 1000 to 3000 nM | < 10 nM | < 3 nM
COc1cnc(-c2ccc(C(=O)NCCCC(C)Nc3cc[nH]c(=O)c3C(F)(F)F)c(F)c2)s1 (stereo not drawn) [Example 27] | > 3000 nM | 10 to 30 nM | < 3 nM
CC(CCCNC(=O)c1ccc(-c2ncc(C(F)F)s2)cn1)Nc1cn[nH]c(=O)c1C#N (stereo not drawn) [Example 28] | > 3000 nM | > 100 nM | 30 to 100 nM
CC(CCCNC(=O)c1ccc(-c2ncc(C(F)F)s2)cn1)Nc1cc[nH]c(=O)c1C(F)(F)F (stereo not drawn) [Example 29] | > 3000 nM | 10 to 30 nM | < 3 nM
Cc1cnc(-c2cnc(C(=O)NCCCC(C)Nc3cc[nH]c(=O)c3C(F)(F)F)cn2)s1 (stereo not drawn) [Example 30] | > 3000 nM | 30 to 100 nM | 3 to 10 nM
CC(CCCNC(=O)c1cnc(-c2ncc(C(F)(F)F)s2)cn1)Nc1cc[nH]c(=O)c1C(F)(F)F (stereo not drawn) [Example 31] | > 3000 nM | 10 to 30 nM | < 3 nM
CC(CCCNC(=O)c1cnc(-c2ncc(C(F)F)s2)cn1)Nc1cc[nH]c(=O)c1C(F)(F)F (stereo not drawn) [Example 32] | > 3000 nM | 10 to 30 nM | < 3 nM
Cc1cc(NC(C)CCCN(C)C(=O)c2cnc(-c3ncc(C(F)(F)F)cn3)cn2)c(C#N)c(=O)[nH]1 (stereo not drawn) [Example 34] | > 3000 nM | > 100 nM | 30 to 100 nM
